{"source": "patent US20250082781A1", "about": "“METHODS OF LOWERING BLOOD GLUCOSE AND TREATING TYPE 2 DIABETES BY ACTIVATION OF PDE4D3” (Salk Institute for Biological Studies, priority 2021, published 2025)", "key": {"blood glucose levels [1]": {"test_system": "blood glucose levels", "experiment": "Blood glucose levels in ob/ob mice", "format": "in vivo, mouse", "conditions": "ad lib fed ob/ob mice, atglistatin 120 mg/kg p.o", "protocol": "(§1) Mice were kept in 12 h light/dark cycle in a temperature-controlled environment. Mice had free access to food and water unless noted otherwise. C57/B6 mice background was used unless noted otherwise. C57BL/6J and ob/ob (000632-B6. Cg-Lepob/J) male mice were obtained from Jackson Laboratory. PDE4D knock-out mice (034588-UCD) were obtained from MMRRC. For diet-induced obesity (DIO) studies, mice were fed a high fat diet (HFD) (60% fat, F3282; Bio-Serv) for minimum of 12 weeks to induce insulin resistance when diet-induced obese model is used. Insulin levels and blood glucose levels were monitored to confirm insulin resistance. To generate adipose-specific FGFR1 deletion, adiponectin-cre mice (B6; FVB-Tg (Adipoq-cre)1Evdr/J; Stock: 010803) were crossed to Fgfr1 flox/flox (B6.129S4-Fgfr1tm5.1Sor/J; Stock: 00767) mice. For AAV mediated expression of target proteins in adipose tissue, 5×10E+11 genomic copies of AAV were injected via tail vein or retro-orbital route.\n(§2) Recombinant FGF1 (rFGF1) was dissolved in phosphate-buffered saline (PBS) at a concentration of 0.2 mg/ml and was injected subcutaneously at a 0.5 mg kg^−1 dose. Blood glucose was monitored at indicated time points after injection. For initial measurements (2-4 h) food was removed after injection to exclude any indirect effects stemming from anorexigenic effects of FGF1. PDE4 inhibitor roflumilast stock in DMSO was diluted at 1 mg/ml in 30% captisol, pH 10 and delivered to mice thorough oral gavage at 5 mg kg^−1 dose. PDE3 inhibitor cilostamide stock in DMSO was diluted at 2 mg/ml in 30% captisol and delivered through intraperitoneal injection at 10 mg kg^−1 dose."}, "[2]": {"experiment": "Serum insulin levels in DIO mice", "format": "in vivo, mouse", "conditions": "ad lib fed DIO mice, roflumilast 5 mg/kg p.o., 1 h", "protocol": "as §1\nRecombinant FGF1 (rFGF1) was dissolved in phosphate-buffered saline (PBS) at a concentration of 0.2 mg/ml and was injected subcutaneously at a 0.5 mg kg^−1 dose. Blood glucose was monitored at indicated time points after injection. For initial measurements (2-4 h) food was removed after injection to exclude any indirect effects stemming from anorexigenic effects of FGF1. […]"}, "[3]": {"test_system": "HSL phosphorylation at S660", "experiment": "Western blot of pHSL-S660 in 3T3-L1 adipocytes", "format": "cell-based", "conditions": "basal and ISO-stimulated cells, roflumilast 2 μM", "protocol": "Tissues were lysed in cold lysis buffer (50 mM Tris, pH 7.5, 150 mM NaCl, 1% NP40, 0.5% NaDoc, 0.1% SDS, 5% glycerol, 1 mM EDTA, protease and phosphatase inhibitors (complete and PhosSTOP (Roche)) by homogenization by bead-beater for 30 s. Samples were cleared for 10 min at 18,000 g at 4° C. and the middle clear phase was transferred to new tubes. A second 30 min centrifugation was performed and the middle clear phase was transferred to new tubes. Five ul protein extract was used for BCA assay to determine protein concentration. Samples were boiled in Laemmli buffer. SDS-PAGE and blotting were performed using gradient gels and Trans-Blot Turbo Transfer System (Bio-Rad). Antibodies used were PDE4D (12918-1-AP, Proteintech), pHSL-660 (4126S, Cell signaling), HSL (4107S, Cell Signaling), tubulin (CP06, Millipore Sigma), and GFP (A01388, GenScript). PDE4D3-pS44 phospho-specific antibody was generated using PDE4D3-S44 FRRHpSWISFDVDNGTSAGR peptide (SEQ ID NO: 20) (Mackenzie et al., 2002) by Pocono Rabbit Farm, using 70-day rabbit antibody production protocol and purified via affinity purification. Primary antibodies were incubated for 2 h at room temperature (RT) or overnight (ON) at 4° C. Blots were developed using SuperSignal West Pico PLUS Chemiluminescent Substrate (ThermoFisher Scientific) and imaged with BioRad GelDoc system."}, "blood glucose levels [4]": {"test_system": "blood glucose levels", "experiment": "Blood glucose levels in DIO mice", "format": "in vivo, mouse", "conditions": "roflumilast 5 mg/kg p.o.", "protocol": "as §1, §2"}, "serum FFA levels": {"test_system": "serum FFA levels", "experiment": "Serum FFA levels in DIO mice", "format": "in vivo, mouse", "conditions": "ad lib fed DIO mice, roflumilast 5 mg/kg p.o., 1 h", "protocol": "as §1, §2"}, "[5]": {"molecular_target": "FGFR1 on mouse adipocytes (mouse) (UniProt P16092)", "sequence (P16092 22-822)": "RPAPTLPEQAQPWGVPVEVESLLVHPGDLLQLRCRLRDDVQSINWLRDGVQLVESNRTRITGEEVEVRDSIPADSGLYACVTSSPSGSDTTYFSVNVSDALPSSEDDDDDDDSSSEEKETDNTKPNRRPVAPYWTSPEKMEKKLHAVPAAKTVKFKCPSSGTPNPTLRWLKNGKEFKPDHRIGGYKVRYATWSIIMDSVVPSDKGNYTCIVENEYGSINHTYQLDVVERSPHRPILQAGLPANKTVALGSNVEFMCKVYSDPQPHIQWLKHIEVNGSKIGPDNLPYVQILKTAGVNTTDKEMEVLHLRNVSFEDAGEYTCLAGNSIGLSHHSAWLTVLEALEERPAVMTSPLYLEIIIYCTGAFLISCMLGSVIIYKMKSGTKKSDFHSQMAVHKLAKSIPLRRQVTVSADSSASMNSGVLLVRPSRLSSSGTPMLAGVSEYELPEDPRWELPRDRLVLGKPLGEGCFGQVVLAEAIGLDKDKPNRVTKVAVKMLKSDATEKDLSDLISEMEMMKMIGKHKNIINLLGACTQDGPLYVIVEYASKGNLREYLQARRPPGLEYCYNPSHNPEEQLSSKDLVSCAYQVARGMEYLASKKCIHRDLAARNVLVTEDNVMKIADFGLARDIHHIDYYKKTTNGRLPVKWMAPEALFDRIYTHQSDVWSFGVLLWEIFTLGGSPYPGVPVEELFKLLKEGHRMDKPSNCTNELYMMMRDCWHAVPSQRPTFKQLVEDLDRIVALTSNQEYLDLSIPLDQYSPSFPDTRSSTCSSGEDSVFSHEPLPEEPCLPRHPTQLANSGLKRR", "experiment": "cell-based or functional assay"}, "[6]": {"molecular_target": "T1, GFP-tagged perilipin (perilipin-GFP), Q8CGN5", "T1 chain": "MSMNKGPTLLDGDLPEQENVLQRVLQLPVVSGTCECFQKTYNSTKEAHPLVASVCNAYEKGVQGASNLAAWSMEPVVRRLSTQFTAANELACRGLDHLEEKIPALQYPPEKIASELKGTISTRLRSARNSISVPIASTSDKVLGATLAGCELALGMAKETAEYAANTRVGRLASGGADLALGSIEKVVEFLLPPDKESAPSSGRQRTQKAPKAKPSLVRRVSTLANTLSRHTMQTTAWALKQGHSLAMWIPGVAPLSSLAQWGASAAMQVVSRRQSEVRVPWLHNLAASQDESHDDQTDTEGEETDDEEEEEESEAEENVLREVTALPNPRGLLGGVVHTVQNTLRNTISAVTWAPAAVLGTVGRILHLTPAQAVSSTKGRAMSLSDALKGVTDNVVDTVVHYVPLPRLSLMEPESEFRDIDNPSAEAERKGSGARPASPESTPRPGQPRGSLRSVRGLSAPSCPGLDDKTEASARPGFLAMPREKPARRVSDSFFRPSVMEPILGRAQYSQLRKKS"}}, "data": [{"molecule": "CN(C)C(=O)Nc1cccc(-c2ccc(N(C)C)cc2)c1", "note": "[Atglistatin, reference compound]", "values": [{"measurement": "blood glucose levels", "setting": "blood glucose levels [1]", "value": "rapidly lowered blood glucose levels"}]}, {"molecule": "O=C(Nc1c(Cl)cncc1Cl)c1ccc(OC(F)F)c(OCC2CC2)c1", "note": "[roflumilast, reference compound]", "values": [{"measurement": "insulin levels", "setting": "[2]", "value": "transiently increased"}, {"measurement": "ability of FGF1 to suppress HSL phosphorylation in presence of roflumilast", "setting": "[3]", "value": "lost"}, {"measurement": "blood glucose", "setting": "blood glucose levels [4]; ad lib fed DIO mice", "value": "transiently increased"}, {"measurement": "blood glucose levels", "setting": "blood glucose levels [4]; fasted DIO mice", "value": "more sustained increase in blood glucose levels"}, {"measurement": "serum FFA", "setting": "serum FFA levels", "value": "transiently increased"}]}, {"molecule": "Recombinant FGF1 (rFGF1) (ligand)", "values": [{"measurement": "serum FFA levels in DIO adR1WT and adR1KO mice", "setting": "[5]", "value": 30, "unit": "%"}]}, {"molecule": "mCherry-tagged HSL (HSL-mCherry) (protein) MDLRTMTQSLVTLAEDNMAFFSSQGPGETARRLSNVFAGVREQALGLEPTLGQLLGVAHHFDLDTETPANGYRSLVHTARCCLAHLLHKSRYVASNRKSIFFRASHNLAELEAYLAALTQLRAMAYYAQRLLTINRPGVLFFEGDEGLTADFLQEYVTLHKGCFYGRCLGFQFTPAIRPFLQTLSIGLVSFGEHYKRNETGLSVTASSLFTGGRFAIDPELRGAEFERIIQNLDVHFWKAFWNITEIEVLSSLANMASTTVRVSRLLSLPPEAFEMPLTSDPRLTVTISPPLAHTGPAPVLARLISYDLREGQDSKVLNSLAKSEGPRLELRPRPHQAPRSRALVVHIHGGGFVAQTSKSHEPYLKNWAQELGVPIFSIDYSLAPEAPFPRALEECFFAYCWAVKHCDLLGSTGERICLAGDSAGGNLCITVSLRAAAYGVRVPDGIMAAYPVTTLQSSASPSRLLSLMDPLLPLSVLSKCVSAYSGTEAEDHFDSDQKALGVMGLVQRDTSLFLRDLRLGASSWLNSFLELSGRKPQKTTSPTAESVRPTESMRRSVSEAALAQPEGLLGTDTLKKLTIKDLSNSEPSDSPEMSQSMETLGPSTPSDVNFFLRPGNSQEEAEAKDEVRPMDGVPRVRAAFPEGFHPRRSSQGVLHMPLYTSPIVKNPFMSPLLAPDSMLKTLPPVHLVACALDPMLDDSVMFARRLRDLGQPVTLKVVEDLPHGFLSLAALCRETRQATEFCVQRIRLILTPPAAPLN", "values": [{"measurement": "co-localization of perilipin-GFP and HSL-mCherry in live 3T3-L1 adipocytes (fluorescence overlap, confocal microscopy)", "setting": "[6]", "value": "FGF1 reduced the isoproterenol-induced co-localization of perilipin-GFP and HSL-mCherry"}]}]}
